# Measured values: patent US9868935B2, “Composition and method of stem cells for preservation of cardiac tissue” (CRIOESTAMINAL, SAÚDE E TECNOLOGIA, SA., priority 2012, dated 2018)
# Assays:
# [1] = system: CD34+ cells; assay: Antagonist pretreatment and LPA-induced CD34+ cell survival in hypoxia (Annexin V/PI FACS); assay type: cell-based, human; settings: hypoxia 24 h; for effect of antagonist on pro-survival effect of LPA: antagonist 1 h pretreatment + LPA 100 μM
# Procedure: FIG. 5—LPA induces CD34+ cell survival mainly through peroxisome proliferator-activator receptor (PPAR). Cells were cultured in serum free medium with LPA. Cells were pretreated with Rho kinase inhibitor (Y-2762, 50 μM), mitogen-activated protein kinase (MAPK) inhibitor (PD98059, 60 μM), LPA1- and LPA3-specific inhibitor (Ki16425, 10 μM), or peroxisome proliferator-activator receptor g (PPARg) inhibitor (GW9662, 50 μM) for 1 hour before hypoxia and cell medium containing LPA (100 μM) for 24 h. Cells without any pretreatment and cultured in serum free medium with or without LPA, in hypoxia for 24 h, were used as positive and negative controls, respectively. Results are average±SEM (n=3-6). * Denote statistical significance: *P<0.05, **P<0.01, […].
# The biological roles of LPA are diverse and include developmental, physiological, and pathophysiological effects (Lin, M. E., D. R. Herr, and J. Chun, Lysophosphatidic acid (LPA) receptors: signaling properties and disease relevance. Prostaglandins Other Lipid Mediat, 2010. 91(3-4): p. 130-8). To date up to five LPA receptors (LPARs) have been identified: LPA1-LPA5 (Choi, J. W., et al., LPA receptors: subtypes and biological actions. Annu Rev Pharmacol Toxicol, 2010. 50: p. 157-86). The receptors are G protein-coupled receptors (GPCRs) and their presence can be found in multiple tissues. LPA1, LPA2 and LPA3 are widely expressed in most tissues (Ishii, I., et al., Functional comparisons of the lysophosphatidic acid receptors, LP(A1)/VZG-1/EDG-2, LP(A2)/EDG-4, and LP(A3)/EDG-7 in neuronal cell lines using a retrovirus expression system. Mol Pharmacol, 2000. 58(5): p. 895-902). LP4 is expressed in specific organs, such as the pancreas, ovaries and thymus (Lee, C. W., et al., LPA(4)/GPR23 is a lysophosphatidic acid (LPA) receptor utilizing G(s)-, G(q)/G(i)-mediated calcium signaling and G(12/13)-mediated Rho activation. J Biol Chem, 2007. 282(7): p. 4310-7). LPA5 is expressed at low levels in multiple tissues (Lee, C. W., et al., GPR92 as a new G12/13- and Gq-coupled lysophosphatidic acid receptor that increases cAMP, LPA5. J Biol Chem, 2006. 281(33): p. 23589-97). To identify the receptor that is mediating the pro-survival effect of LPA (100 μM), was used Ki16425 (10 μM), an LPA1- and LPA3-specific antagonist, and GW9662 (50 μM), an antagonist of peroxisome proliferator-activator receptor γ (PPAR γ). Studies indicate that LPA has a high affinity by this last receptor (McIntyre, T. M., et al., Identification of an intracellular receptor for lysophosphatidic acid (LPA): LPA is a transcellular PPARgamma agonist. Proc Natl Acad Sci USA, 2003. 100(1): p. 131-6; Gustin, C., M. Van Steenbrugge, and M. Raes, LPA modulates monocyte migration directly and via LPA-stimulated endothelial cells. Am J Physiol Cell Physiol, 2008. 295(4): p. C905-14). This approach was complemented, by inhibiting downstream targets of the receptors including Rho kinase and mitogen-activated protein kinase (MAPK) using Y-2762 (50 μM) and PD98059 (60 μM) antagonists, respectively. It is known that all LPARs couple with and activate G proteins, which in turn activate MAPK (LPA1, LPA2, LPA3 and LPA4) and Rho kinase (LPA1, LPA2, LPA4 and LPA5) (Choi, J. W., et al., LPA receptors: subtypes and biological actions. Annu Rev Pharmacol Toxicol, 2010. 50: p. 157-86). Cells were treated for 1 h in X-Vivo medium containing a specific antagonist followed by culture under hypoxia conditions for 24 h. Cell survival was assessed by FACS analysis after Annexin V/PI staining. […] The number of viable cells decreased from 77% (+LPA) to 67% (P<0.01, n=19). […] Because the two signaling pathways are downstream targets of different LPARs (see above), this might indicate different contributions of LPARs in the survival of CD34+ cells.
# [2] = system: human umbilical cord blood derived CD34+ cells; assay: CD34+ cell survival in hypoxia and serum deprived conditions (Annexin V/PI flow cytometry); assay type: cell-based; settings: hypoxia 0.5% O2, 24 h, serum free; P<0.001
# Procedure: In an embodiment, UCB CD34+ cells (1×10^^6 cells/mL) were incubated in X-Vivo media (Lonza) in a hypoxia chamber for 24 h (0.5% of O2 and 5% of CO2), in the presence or absence of pharmacological drugs, for further assessment of cell survival/apoptosis and necrosis by FACS analysis of the expression of annexin V and PI respectively. Preferably, cells were pretreated with the respective drugs for 1 hour before hypoxia, and treatment maintained during hypoxia.
# In a preferred embodiment, to identify molecules that promote CD34+ cell survival in hypoxia and serum deprived conditions we developed an assay that uses human umbilical cord blood derived CD34+ cells (2×10^^5 cells per well of a 96-well plate) suspended in X-Vivo medium (used in clinical trials (Schachinger, V., et al., Intracoronary bone marrow-derived progenitor cells in acute myocardial infarction. N Engl J Med, 2006. 355(12): p. 1210-21)) and incubated in a hypoxia chamber at 0.5% O2, at 37° C., for 24 h. Some of the drugs selected have been approved by FDA for the treatment of cardiovascular diseases (e.g. Nebivolol Lombardo, R. M., et al., Effects of nebivolol versus carvedilol on left ventricular function in patients with chronic heart failure and reduced left ventricular systolic function. Am J Cardiovasc Drugs, 2006. 6(4): p. 259-63; Ibersatan Massie, B. M., et al., Irbesartan in patients with heart failure and preserved ejection fraction. N Engl J Med, 2008. 359(23): p. 2456-67), others are being evaluated in pre-clinical/clinical assays to improve heart function in patients/models with heart failure (e.g. INO1001 (Szabo, G., et al., INO-1001 a novel poly(ADP-ribose) polymerase (PARP) inhibitor improves cardiac and pulmonary function after crystalloid cardioplegia and extracorporal circulation. Shock, 2004. 21(5): p. 426-32); erythropoietin (Belonje, A. M., et al., Effects of erythropoietin after an acute myocardial infarction: rationale and study design of a prospective, randomized, clinical trial (HEBE III). Am Heart J, 2008. 155(5): p. 817-22); melatonin (Chen, Z., et al., Protective effect of melatonin on myocardial infarction. Am J Physiol Heart Circ Physiol, 2003. 284(5): p. H1618-24); VX-702 (Ma, X. L., et al., Inhibition of p38 mitogen-activated protein kinase decreases cardiomyocyte apoptosis and improves cardiac function after myocardial ischemia and reperfusion. Circulation, 1999. 99(13): p. 1685-91)), others are natural substances found in the human body (LPA). Cell viability was evaluated by flow cytometry using Annexin V/propidium iodide (PI) staining. Annexin V is a phospholipid-binding protein with specificity for phospatidyl serine, one of the earliest makers of cellular transition to an apoptotic state. This phospholipid is translocated from the inner to the outer leaflet of the plasma membrane (Koopman, G., et al., Annexin V for flow cytometric detection of phosphatidylserine expression on B cells undergoing apoptosis. Blood, 1994. 84(5): p. 1415-20.). PI enters in necrotic cells and binds to double-stranded nucleic acids, but is excluded from cells with normal integrity. According to FIG. 1, untreated CD34+ cells show a very poor survival, with only ˜31% of viable cells, ˜31% of apoptotic cells (Annexin V+/PI−) being the majority of the cells ˜39% at the necrotic stage (PI+). […] LPA (10 μM) was the drug with the highest pro-survival effect (˜69% of viable cells) and therefore further studied (FIGS. 1 and 2A).
# Importantly, the percentage of viable cells in CD34+ treated with 1 μM of LPA and cultured under hypoxia conditions is similar to untreated cells cultured under normoxia conditions. The pro-survival effect of LPA decreases as a function of hypoxia time (FIG. 2C). The percentage of viable cells in LPA-treated CD34+ cells decreased from 78% at day 1 to 40% at day 3.
Compound,"number of viable cells induced by LPA after antagonist ([1]; GW9662 50 μM 1 h pretreatment + LPA 100 μM, P<0.001, n=11) [%]",effect of antagonist on pro-survival effect of LPA [1],"number of viable cells induced by LPA after antagonist ([1]; Ki16425 10 μM 1 h pretreatment + LPA 100 μM, P<0.01, n=19) [%]",cell survival vs untreated cells [2]
O=C(Nc1ccccc1)c1cc([N+](=O)[O-])ccc1Cl [GW9662],~53,did not block totally the pro-survival effect of LPA,–,–
Cc1noc(-c2ccc(CSCCC(=O)O)cc2)c1NC(=O)OC(C)c1ccccc1Cl (stereo not drawn) [Ki16425],–,relatively small effect,67,–
COc1cccc(-c2cc(=O)c3ccccc3o2)c1N [PD98059],–,suppressed at higher levels the pro-survival effect of LPA than the inhibition of Rho kinase signaling pathway,–,–
"CCCCC[C@H](O)/C=C/[C@H]1[C@H](O)CC(=O)[C@@H]1C/C=C\CCCC(=O)O [prostaglandin E2, reference compound]",–,–,–,improved significantly
